The nature of data set [1]: in vitro. Type of data set: in vitro ADME, wheat. The following applies: wheat, wheat flour suspension, pH 5. The procedure:
(§1) When stirred with a dilute suspension of wheat flour at 25° C., ASMP was comletely hydrolyzed in 1 hr. whereas ASTP required approximately 10-20 hr. for 95% hydrolysis.
(§2) ^1 Enzymolysis and titration of Lascorbate released were done as
(§3) described in the footnote to Table I, except the phosphatase was that
(§4) present in wheat flour. Two grams of wheat flour was used in the 100 ml
(§5) enzymolysis reaction mixture.

Data set [2] concerns phosphatase present in wheat flour. Put plainly: in vitro. It is filed as in vitro ADME. On the procedure: as §1, §2, §3, §4, §5
A short description of data set [3]: Stabilization of L-ascorbate against autoxidation in aqueous medium at pH 7. It is filed as physicochemical.
The nature of data set [4]: Blank reactions without phosphatase: acid-catalyzed release of L-ascorbate in pH 5.0 acetate buffer. It is filed as physicochemical. The settings on record: 0.05 m acetate buffer, 25°, read-out: L-Ascorbate Released (%), Blank; for degraded at 0.25 h: reaction time 0.25 h; for degraded at 0.5 h: reaction time 0.50 h; for degraded at 1 h: reaction time 1.0 h; for degraded at 2 h: reaction time 2.0 h; for degraded at 3 h: reaction time 3.0 h; for degraded at 4 h: reaction time 4.0 h; for degraded at 8 h: reaction time 8.0 h; for degraded at 20 h: reaction time 20.0 h; for degraded at 5 h: reaction time 5.0 h.

Data set [5] can be described thus: in vitro. Type of data set: in vitro ADME, potato. The following applies: potato, ph 5.0 acetate buffer, pH 5. The procedure:
(§6) It has also been confirmed that behavior of the 2-monophosphate ester of L-ascorbate, ASMP, towards the enzyme phosphatase is different than the behavior of the 2-triphopsphate ester, ASTP.
(§7) ^1 Enzymolysis was done at 25° by stirring 200 micromoles of
(§8) magnesium Lascorbate 2phosphate or ammonium Lascorbate 2triphosphate in
(§9) 100 ml of 0.05 M acetate buffer (pH 5.0) containing about 400 mg of
(§10) bakers' compressed yeast and 2 units of phosphatase (1 unit activity
(§11) hydrolyzes 1 μmole of pnitrophenyl phosphate at pH 4.8 and 37°)
(§12) At a given reaction time, an aliquot (5 ml) was removed, mixed with 5.0 m
(§13) of 12% trichloroacetic acid/4% metaphosphoric acid, and the mixture
(§14) filtered. An aliquot (5 ml) of the filtrate was titrated with
(§15) 2,6dichlorophenolindophenol to a pink endpoint. Blank solutions contained
(§16) all reagents except phosphatase.

Data set [6] is described as follows: physchem. Type of data set: physicochemical. The following applies: for Stability (% Remaining) when reacted with aqueous hydrogen peroxide / remaining at 0.25 h / remaining at 1 h / remaining at 24 h / remaining at 72 h / remaining at 144 h / remaining at 192 h / remaining at 336 h: tris buffer, hydrogen peroxide; for Stability (% Remaining) when reacted with aqueous hydrogen peroxide: pH 7; for remaining at 0.25 h / remaining at 1 h / remaining at 24 h / remaining at 72 h / remaining at 144 h / remaining at 192 h / remaining at 336 h: pH 7, Stability (% Remaining) when reacted with aqueous hydrogen peroxide. On the procedure: When ASTP and ASMP were treated under identical conditions (pH 7, 25° C.) with hydrogen peroxide for 8 days, 77% ASTP remained unreacted while 44% ASMP remained. After 14 days oxidation, 0% ASMP remained compared to 55% ASTP.
^1 Reaction mixture contained 0.05 mL of 30% aqueous hydrogen peroxid
and 200 micromoles of Lascorbate or its 2phosphorylated derivative in 100
ml of 0.05 TRIS buffer (pH 7.0). At a given reaction time, an aliquot (1
ml) of a reaction mixture containing the 2phosphorylated ester was dilute
10 fold with TRIS buffer at pH 7, and the uv absorbance of the mixture
read at 258 nm. To follow loss of Lascorbic acid, an aliquot (1 ml) of th
reaction mixture was diluted with 2% metaphosphoric acid, and the uv
absorbance read at 245 nm.

In data set [7] the test system is guinea pigs. Description: Guinea pig feeding study of vitamin C activity. It is filed as in vivo. The settings on record: 15.4 mg per kg of body weight per day orally, equivalent to 5.0 mg of L-ascorbic acid.
Experimental: English short-hair guinea pigs were housed individually in a cage and fed Purina guinea pig ration during a one-week acclimation period. The young pigs (190-250 g) were divided into four groups of 10 animals each. One group was fed a diet devoid of vitamin C (Reid-Briggs guinea pig diet, U.S. Biochemicals, Cleveland, Ohio); the second group received the same diet but supplemented with 5.0 mg of L-ascorbic acid per kg of body weight per day; the third group received 15.4 mg of purified tetrasodium L-ascorbate 2-triphosphate dihydrate (L-ascorbate 2-tri-PO4, purified) per kg of body weight per day; and the fourth group received 15.4 mg of tetra-sodium L-ascorbate 2-triphosphate dihydrate (L-ascorbate 2-tri-PO4, reaction mixture) in admixture with the by-products of the reaction mixture as set forth in Example I, except the small amount of unreacted L-ascorbic acid in the reaction mixture was destroyed by O2 -oxidation (the 15.4 mg of tetrasodium L-ascorbate 2-triphosphate dihydrate is equivalent to 5.0 mg of L-ascorbic acid). The vitamin C was administered orally with a calibrated syringe from solutions kept at 5° C., except the L-ascorbic acid solution was prepared fresh daily. The weights of the animals were recorded daily, and the arithmetic means of each group were calculated and compared in the FIGURE.
In data set [8] the test system is Acid Phosphatase from Potato. Put plainly: in vitro. It is filed as in vitro ADME. On the procedure:
as §6, §7, §8, §9, §10, §11, §12, §13, §14, §15, §16

Data set [9] deals with fish. The settings on record: fish and possibly crustacea; Halver et al 1975; cited from earlier work.
Data set [10] has as its system guinea pigs. The settings on record: Machlin 1976; cited from earlier work.
Data set [11] concerns monkeys. The following applies: Machlin et al; cited from earlier work.
Where [12] appears, read: pH 5, Table I, all reagents except phosphatase.
[13] abbreviates: pH 5, Table II, blank without phosphatase (wheat flour).

Like-named read-outs stand apart in the source and are kept apart here.

Results on five compounds are retold here after patent US4647672A, “Ascorbate 2-polyphosphate esters and method of making same” (priority 1985, dated 1987).

In general, share remaining refers to the share of the starting amount still present when the sample was taken.

In data set [1], `O=C1O[C@H]([C@@H](O)CO)C(O)=C1OP(=O)(O)OP(=O)(O)OP(=O)(O)O` [ASTP, L-ascorbate 2-triphosphate] gave a metabolised at 0.25 h of 0%, a metabolised at 0.5 h of 1.2%, a metabolised at 1 h of 3.5% and a metabolised at 2 h of 29.6%. For the same compound, in data set [1], the metabolised at 3 h stood at 65.8%, the metabolised at 4 h came out at 86.9%, the metabolised at 5 h amounted to 93.1% and the metabolised at 20 h is 95%. In addition, the “time required for 95% hydrolysis” value in [2] lay within 10 to 20 h. Also, the “stabilization of L-ascorbate against autoxidation by the substance” value in [3] is “L-ascorbate is stabilized against autoxidation by ASTP”. Further, in [4] (setting [12]), the degraded at 0.25 h was determined as 0%, the degraded at 0.5 h was determined as 0%, the degraded at 1 h was 0% and the degraded at 2 h is 0%. Moreover, in data set [4] (setting [12]), the degraded at 3 h worked out at 0%, the degraded at 4 h was found to be 0%, the degraded at 8 h is 0% and the degraded at 20 h was 0%. Moreover, in [4] (setting [13]), the degraded at 0.25 h was 0%, the degraded at 0.5 h was determined as 0%, the degraded at 1 h was 0% and the degraded at 2 h was 0%. In addition, in [4] (setting [13]), the degraded at 3 h worked out at 0%, the degraded at 4 h worked out at 0%, the degraded at 5 h was 0% and the degraded at 20 h was determined as 0%. Also, in data set [5], the metabolised at 0.25 h was found to be 0%, the metabolised at 0.5 h turned out to be 0%, the metabolised at 1 h stood at 0% and the metabolised at 2 h stood at 0%. In data set [5], this compound displayed a metabolised at 3 h of 0.4%, a metabolised at 4 h of 0.8%, a metabolised at 8 h of 3.5% and a metabolised at 20 h of 8.5%. For the same compound, in data set [6], the “stability to oxidation compared with ASMP” value is reported as “more stable to oxidation than ASMP”, the amount remaining at 0.25 h turned out to be 98.6%, the share remaining at 1 h worked out at 98.3% and the amount remaining at 24 h turned out to be 96.7%. Besides, in data set [6], the share remaining at 72 h worked out at 87.6%, the share remaining at 144 h turned out to be 83.3%, the amount remaining at 192 h is 77% and the share remaining at 336 h came to 55%. Further, in [6] (336 h), the “Stability (% Remaining) when reacted with aqueous hydrogen peroxide” value is 55.2%.

For `O.O.O=C1O[C@H]([C@@H](O)CO)C([O-])=C1OP(=O)([O-])OP(=O)([O-])OP(=O)([O-])O.[Na+].[Na+].[Na+].[Na+]` [L-ascorbate 2-tri-PO4, purified, tetrasodium L-ascorbate 2-triphosphate dihydrate], in data set [7], the “growth rate (mean body weight) compared with group fed equivalent L-ascorbic acid” value is reported as “grew at a rate equal to that of the group fed an equivalent amount of L-ascorbic acid”.

Regarding `O=C1O[C@H]([C@@H](O)CO)C(O)=C1O` [Parent Compd, L-ascorbic acid], the “time to destruction by hydrogen peroxide” value in data set [6] (pH 7, 25° C.) is reported as “destroyed in less than one hour”. In data set [6], the amount remaining at 0.25 h came to 56.9%, the amount remaining at 1 h was determined as 0%, the amount remaining at 24 h worked out at 0% and the fraction remaining at 72 h worked out at 0%. Moreover, in data set [6], the fraction remaining at 144 h is 0%, the share remaining at 192 h was 0% and the amount remaining at 336 h amounted to 0%.

In data set [1], `O=C1O[C@H]([C@@H](O)CO)C(O)=C1OP(=O)(O)O` [ASMP, L-Ascorbate 2-phosphate] returned a metabolised at 0.25 h of 47.1%, a metabolised at 0.5 h of 76.2%, a metabolised at 1 h of 100% and a metabolised at 2 h of 100%. For the same compound, in data set [1], the metabolised at 3 h stood at 100%, the metabolised at 4 h was 100%, the metabolised at 5 h is 100% and the metabolised at 20 h turned out to be 100%. Moreover, in data set [2], the “time to complete hydrolysis” value stood at 1 h. For the same compound, in data set [4] (setting [12]), the degraded at 0.25 h came to 0%, the degraded at 0.5 h amounted to 0%, the degraded at 1 h was 0% and the degraded at 2 h worked out at 2.9%. Further, in data set [4] (setting [12]), the degraded at 3 h came out at 4.6%, the degraded at 4 h worked out at 4.6%, the degraded at 8 h turned out to be 8.1% and the degraded at 20 h is around 15%. Also, in [4] (setting [13]), the degraded at 0.25 h worked out at 0%, the degraded at 0.5 h was 0%, the degraded at 1 h was found to be 0% and the degraded at 2 h turned out to be 2.9%. In addition, in data set [4] (setting [13]), the degraded at 3 h was determined as 4.6%, the degraded at 4 h is 4.6%, the degraded at 5 h came to 5.8% and the degraded at 20 h is 14.5%. In data set [5], this compound yielded a metabolised at 0.25 h of 9.3%, a metabolised at 0.5 h of 18.6%, a metabolised at 1 h of 35.5% and a metabolised at 2 h of 60.5%. In data set [5], this compound gave a metabolised at 3 h of 77.3%, a metabolised at 4 h of 88.4%, a metabolised at 8 h of 100% and a metabolised at 20 h of 100%. In addition, the “rate of release of L-ascorbic acid when treated with purified phosphatase from potato (comparison in words)” value in [8] is on record as “much faster than ASTP”. The “Stability (% Remaining) when reacted with aqueous hydrogen peroxide” value in data set [6] (192 h) is recorded as 44.1%. In data set [6], this compound displayed an amount remaining at 0.25 h of 98.7%, a share remaining at 1 h of 97.1%, a share remaining at 24 h of 93.9% and a fraction remaining at 72 h of 77.7%. In data set [6], this compound returned a share remaining at 144 h of 64.1%, a fraction remaining at 192 h of 44% and a share remaining at 336 h of 0%.

As to `O=C1O[C@H]([C@@H](O)CO)C(O)=C1OS(=O)(=O)O` [2-sulfate ester], the “vitamin C activity” value is listed as “it is in fish” in data set [9], “not an active source of vitamin C” in [10] and “not an active source of vitamin C” in data set [11].
